According to publication PMC8201479, “Trisubstituted Pyrrolinones as Small-Molecule Inhibitors Disrupting the Protein–RNA Interaction of LIN28 and Let-7” (ACS Medicinal Chemistry Letters, 2021):

Each molecule was assayed against T1, LIN28–let-7 interaction (Homo sapiens, UniProt Q9H9Z2) (assay: Fluorescence polarization (FP) assay, LIN28A (residues 16–187) and FAM-labeled preE-let-7f-1). Conditions: not given.
T1 construct: Purified LIN28A (residues 16–187) was incubated at a concentration of 200 nM; His-tag (cleaved yes); made in house; host or cells: Escherichia coli BL21(DE3)
T1 sequence (Q9H9Z2 16-187): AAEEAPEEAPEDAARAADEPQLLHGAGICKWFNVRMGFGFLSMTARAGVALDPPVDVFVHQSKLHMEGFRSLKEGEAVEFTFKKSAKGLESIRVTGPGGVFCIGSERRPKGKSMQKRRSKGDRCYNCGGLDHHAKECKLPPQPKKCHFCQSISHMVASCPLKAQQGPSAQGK
Format: binding
Procedure: Protein expression and purification.
19 vector and overexpressed in Escherichia coli BL21(DE3). The culture was incubated at 37 °C until
the absorbance at 600 nm (OD600) reached 0.5–0.7. IPTG was added to a final concentration of
300 µM, and overnight induction was performed at 18 °C. Cells were harvested by centrifugation.
The bacterial pellet was resuspended in lysis buffer (50 mM NaH2PO4, pH 7.5, 300 mM NaCl,
0.1 mM PMSF) and lysed using a Microfluidizer (Microfluidics) . A fresh portion of 0.1 mM PMSF
and Triton X-100 (1% final concentration) were added. The lysate was cleared by ultra centrifugation
at 30000 xg and 4 °C for 1 h. The protein purification was performed using immobilized nickel
300 mM NaCl and 5 % glycerol. Gradient elution was performed with a maximum of 0.5 M imidazole.
Subsequently, the affinity tag was cleaved using His6 -TEV-protease and the protease and unspecific
binders were eliminated by a second nickel affinity chromatography. After protein concentration
LIN28A containing fractions were concentrated and applied to a High Load Superdex 75 pg 16/600
column (GE Healthcare) with gel-filtration buffer (30 mM NaH2PO4, pH 7.5, 50 mM NaCl, 5%
glycerol, 2 mM β-ME). The purified protein was concentrated and stored at -80 °C until further
Fluorescence polarization. The fluorescence polarization assay was performed in black low volume
IC50 measurements were performed with three technical
minutes with compound concentrations ranging from 0.3 nM to 100 µM in FP assay buffer (20 mM
Tris, pH 7, 100 mM NaCl, 5 mM MgCl2, 2 mM glutathione (reduced), 0.1 % NP-40). Subsequently,
FAM-labeled preE-let-7f-1 (mus musculus) ([…]-
FAM, synthesized by IDT) was added to a final concentration of 2 nM. Fluorescence polarization
was detected after incubation at room temperature using a TECAN Spark plate reader. Half maximal
inhibitory concentrations (IC50) were determined using GraphPad Prism 7. […]
For `O=C(O)c1ccc(C2C(C(=O)c3ccccc3)=C(O)C(=O)N2c2ccc(O)cc2)cc1` (stereo not shown) [PH-36], the “activity in the FP assay” value was “inactive”.
For `O=C(O)c1ccc(N2C(=O)C(O)=C(C(=O)c3ccc(Br)cc3)C2c2ccc(-c3nccs3)cc2)cc1` (stereo not shown) [C899], the IC50 was > 100 µM.

Same assay, conditions: text and figures; C-labels = library sample, PH-labels = in-house resynthesized; read-out: IC50 in the FP assay
With `O=C(C1=C(O)C(=O)N(c2ccc(O)c(C(=O)O)c2)C1c1ccc(-c2nccs2)cc1)c1ccccc1` (stereo not shown) [C879/PH-34] the IC50 was < 30 µM.

Each molecule was assayed against T1, LIN28–let-7 interaction in the same assay as above. Conditions: Table 1; quadruplicate; starting from 30 μM, eight concentrations; extrapolated based on the observed IC50 curves; read-out: IC50, LIN28–let-7 inhibitory activity.
Format: binding
With `O=C(O)c1ccc(C2C(C(=O)c3ccc(Br)cc3)=C(O)C(=O)N2c2cccc(C(=O)O)c2)cc1` (stereo not shown) [C894] the IC50 was > 100 µM.
For `COc1ccc(C(=O)C2=C(O)C(=O)N(c3cccc(C(=O)O)c3)C2c2ccc(-c3nccs3)cc2)cc1` (stereo not shown) [C900], the IC50 was > 100 µM.
In the case of `COc1ccc(C(=O)C2=C(O)C(=O)N(c3cccc(-c4nnn[nH]4)c3)C2c2ccc(-c3nccs3)cc2)cc1` (stereo not shown) [C901], the IC50 is reported as > 100 µM.
In the case of `COc1ccc(C(=O)C2=C(O)C(=O)N(c3ccc(C(=O)O)cc3)C2c2ccc(C(=O)O)cc2)cc1` (stereo not shown) [C887], the IC50 is reported as > 100 µM.
An IC50 of 30 to 40 µM was found for `COc1ccc(C(=O)C2=C(O)C(=O)N(c3ccc(O)c(C(=O)O)c3)C2c2ccc(C(=O)O)cc2)cc1` (stereo not shown) [C885] in this work.
For `COc1ccc(C(=O)C2=C(O)C(=O)N(c3cccc(C(=O)O)c3)C2c2ccc([N+](=O)[O-])cc2)cc1` (stereo not shown) [C883], the IC50 was > 100 µM.
`COc1ccc(C(=O)C2=C(O)C(=O)N(c3cccc(C(=O)O)c3)C2c2ccc(C(=O)O)cc2)cc1` (stereo not shown) [C886] was tested, and the IC50 was > 100 µM.
An IC50 of 30 to 40 µM was found for `O=C(O)c1cccc(N2C(=O)C(O)=C(C(=O)c3ccccc3)C2c2ccc(-c3nccs3)cc2)c1` (stereo not shown) [C897] in this work.
With `COc1ccc(C(=O)C2=C(O)C(=O)N(c3cccc(-c4nnn[nH]4)c3)C2c2ccc(C(=O)O)cc2)cc1` (stereo not shown) [C888] the IC50 was > 100 µM.
For `O=C(C1=C(O)C(=O)N(c2cccc(-c3nnn[nH]3)c2)C1c1ccc([N+](=O)[O-])cc1)c1ccc(Br)cc1` (stereo not shown) [C892], the IC50 was > 100 µM.

Same assay, conditions: Table 1; quadruplicate; starting from a maximum concentration of 60 μM, eight concentrations; read-out: IC50, LIN28–let-7 inhibitory activity
An IC50 of 12 µM was found for `O=C(C1=C(O)C(=O)N(c2ccc(O)c(C(=O)O)c2)C1c1ccc(-c2nccs2)cc1)c1ccccc1` (stereo not shown) [C879/PH-34] in this work.

Same assay, conditions: Table 1; quadruplicate; starting from a maximum of 60 μM, eight concentrations; extrapolated based on the observed IC50 curves; read-out: IC50, LIN28–let-7 inhibitory activity
In the case of `O=C(O)c1ccc(C2C(C(=O)c3ccccc3)=C(O)C(=O)N2c2ccc(O)cc2)cc1` (stereo not shown) [PH-36], the IC50 is reported as > 100 µM.

Same assay, conditions: raw data Table S3; 0.041 μM compound; four replicates
For `O=C(O)c1ccc(C2C(C(=O)c3ccccc3)=C(O)C(=O)N2c2ccc(O)cc2)cc1` (stereo not shown) [PH-36], the “FP, Average (mP)” value was 115.00 mP.
`O=C(C1=C(O)C(=O)N(c2ccc(O)c(C(=O)O)c2)C1c1ccc(-c2nccs2)cc1)c1ccccc1` (stereo not shown) [C879/PH-34] was tested, and the “FP, Average (mP)” value was 117.25 mP.

Same assay, conditions: raw data Table S3; 0.123 μM compound; four replicates
With `O=C(O)c1ccc(C2C(C(=O)c3ccccc3)=C(O)C(=O)N2c2ccc(O)cc2)cc1` (stereo not shown) [PH-36] the “FP, Average (mP)” value was 116.25 mP.
For `O=C(C1=C(O)C(=O)N(c2ccc(O)c(C(=O)O)c2)C1c1ccc(-c2nccs2)cc1)c1ccccc1` (stereo not shown) [C879/PH-34], the “FP, Average (mP)” value was 110.90 mP.

Same assay, conditions: raw data Table S3; 0.368 μM compound; four replicates
For `O=C(O)c1ccc(C2C(C(=O)c3ccccc3)=C(O)C(=O)N2c2ccc(O)cc2)cc1` (stereo not shown) [PH-36], the “FP, Average (mP)” value was 113.50 mP.
`O=C(C1=C(O)C(=O)N(c2ccc(O)c(C(=O)O)c2)C1c1ccc(-c2nccs2)cc1)c1ccccc1` (stereo not shown) [C879/PH-34] was tested, and the “FP, Average (mP)” value was 115.50 mP.

Same assay, conditions: raw data Table S3; 1.103 μM compound; four replicates
For `O=C(O)c1ccc(C2C(C(=O)c3ccccc3)=C(O)C(=O)N2c2ccc(O)cc2)cc1` (stereo not shown) [PH-36], the “FP, Average (mP)” value was 112.00 mP.
With `O=C(C1=C(O)C(=O)N(c2ccc(O)c(C(=O)O)c2)C1c1ccc(-c2nccs2)cc1)c1ccccc1` (stereo not shown) [C879/PH-34] the “FP, Average (mP)” value was 113.50 mP.

Same assay, conditions: raw data Table S3; 3.125 μM compound; four replicates
In the case of `O=C(O)c1ccc(C2C(C(=O)c3ccccc3)=C(O)C(=O)N2c2ccc(O)cc2)cc1` (stereo not shown) [PH-36], the “FP, Average (mP)” value is reported as 104.83 mP.
`O=C(C1=C(O)C(=O)N(c2ccc(O)c(C(=O)O)c2)C1c1ccc(-c2nccs2)cc1)c1ccccc1` (stereo not shown) [C879/PH-34] was tested, and the “FP, Average (mP)” value was 89.73 mP.

Same assay, conditions: raw data Table S3; 9.375 μM compound; four replicates
In the case of `O=C(O)c1ccc(C2C(C(=O)c3ccccc3)=C(O)C(=O)N2c2ccc(O)cc2)cc1` (stereo not shown) [PH-36], the “FP, Average (mP)” value is reported as 108.50 mP.
For `O=C(C1=C(O)C(=O)N(c2ccc(O)c(C(=O)O)c2)C1c1ccc(-c2nccs2)cc1)c1ccccc1` (stereo not shown) [C879/PH-34], the “FP, Average (mP)” value was 88.63 mP.

Same assay, conditions: raw data Table S3; 29.688 μM compound; four replicates
In the case of `O=C(O)c1ccc(C2C(C(=O)c3ccccc3)=C(O)C(=O)N2c2ccc(O)cc2)cc1` (stereo not shown) [PH-36], the “FP, Average (mP)” value is reported as 96.03 mP.
`O=C(C1=C(O)C(=O)N(c2ccc(O)c(C(=O)O)c2)C1c1ccc(-c2nccs2)cc1)c1ccccc1` (stereo not shown) [C879/PH-34] was tested, and the “FP, Average (mP)” value was 73.03 mP.

Same assay, conditions: raw data Table S3; 59.375 μM compound; four replicates
With `O=C(O)c1ccc(C2C(C(=O)c3ccccc3)=C(O)C(=O)N2c2ccc(O)cc2)cc1` (stereo not shown) [PH-36] the “FP, Average (mP)” value was 79.35 mP.
`O=C(C1=C(O)C(=O)N(c2ccc(O)c(C(=O)O)c2)C1c1ccc(-c2nccs2)cc1)c1ccccc1` (stereo not shown) [C879/PH-34] was tested, and the “FP, Average (mP)” value was 53.40 mP.
